Data: patent US20240226057A1, “NEW USE OF MONENSIN” (MAST PHARMA AB, priority 2021, published 2024)
“Also recorded” adds a separate entry of the source. Where two headings read alike, the source gives them in different places.

Legend:
[1] = system: Bone marrow-derived mast cells (BMMCs); test: Trypan blue positivity of treated mast cells; format: cell-based, mouse
Caspase 3 & 7 = Caspase 3 & 7 activation in mast cells
[2] = system: human fibroblast cells (HFL-1); test: Cytotoxicity against human fibroblast cells (PrestoBlue)
[3] = system: Bone marrow-derived mast cells (BMMCs); test: BMMC viability, screening and kinetic analysis (Presto Blue / resazurin reduction)
BMMCs [4] = test: Granule acidity, LysoSensor Blue DND-167 staining of BMMCs; format: cell-based, mouse; conditions: 0-10 μM for 30 min
Description: (§1) To assess cell death, cells were stained with Annexin V and either DRAQ7™ or Via-Probe™ Red Nucleic Acid Stain and analyzed by flow cytometry. To probe pH in acidic organelles, cells were incubated with LysoSensor Blue DND-167, followed by flow cytometry. The relative intracellular pH changes were assessed using the cell-permeable pH-sensitive fluorescent indicator (BCFL-AM). Intracellular calcium changes were assessed using Fluo-4/AM.
(§2) BMMCs were treated with 1 μM monensin for 12 and 24 h, followed by Annexin V/DRAQ7 staining to measure cell death. MCs were gated into cells having high and low maturity, as assessed by SSC analysis for granularity (A). The right panels depict the quantification of apoptotic (Annexin V^+/DRAQ7^−) and necrotic (Annexin V^+/DRAQ7^+) cell death in the respective populations (n=3). (B) BMMCs (0.5×10^6 cells) were developed from WT (FIG. 4B) or serglycin^−/− (SG^−/−) mice (data not shown) and were treated with monensin 0-10 μM for 24 h, followed by cell death assessment (Annexin V/DRAQ7 staining). […] To further assess the impact of the secretory granules on monensin-induced cell death, it was evaluated whether the absence of serglycin, a granule-restricted proteoglycan, affects the response to monensin. […]

[5] = system: mouse bone-marrow-derived mast cells (BMMCs); test: Annexin V/DRAQ7 cell death assessment in BMMCs; format: cell-based
Description: as §1
To analyze the mechanism by which monensin acts on mast cells, Annexin V/DRAQ7 staining was first adopted to assess the type of cell death induced by monensin, the gating is shown in FIG. 2A. […] Necrotic/late apoptotic (Annexin V^+/DRAQ7^+) cells were also seen, but to a lesser extent (right panel).
BMMCs were treated with 1 μM monensin for 12 and 24 h, followed by Annexin V/DRAQ7 staining to measure cell death. MCs were gated into cells having high and low maturity, as assessed by SSC analysis for granularity (A). The right panels depict the quantification of apoptotic (Annexin V^+/DRAQ7^−) and necrotic (Annexin V^+/DRAQ7^+) cell death in the respective populations (n=3). (B) BMMCs (0.5×10^6 cells) were developed from WT (FIG. 4B) or serglycin^−/− (SG^−/−) mice (data not shown) and were treated with monensin 0-10 μM for 24 h, followed by cell death assessment (Annexin V/DRAQ7 staining). BMMCs (C; 0.5×10^6 cells) or human skin MCs (0.1×10^6 cells; D) were treated with monensin or bafilomycin A 0-10 μM for 30 min, followed by staining with LysoSensor Blue DND-167 (a lysosome probe sensitive to decreased pH) (n=4). BMMCs (0.5×10^6 cells) were treated with either monensin or bafilomycin A (20 nM) alone or in combination (E), followed by measurement of cell death (Annexin V/DRAQ7 staining). (F) BMMCs were treated with monensin or bafilomycin A for 4 and 24 h, followed by assessment of cytosolic pH (n=2). […] To further assess the impact of the secretory granules on monensin-induced cell death, it was evaluated whether the absence of serglycin, a granule-restricted proteoglycan, affects the response to monensin. Both WT and serglycin^−/− BMMCs were sensitive to cell death induced by monensin.

mMCP-6 = test: Translocation of granule protease mMCP-6 into the cytosolic fraction; format: cell-based
[6] = system: Bone marrow-derived mast cells (BMMCs); conditions: mouse; for Viability % (10 μM): 24 h
mast cells = conditions: cited from earlier work
peritoneal lymphocytes = test: Mouse peritoneal lavage cells, viability by flow cytometry: lymphocytes; format: cell-based; conditions: 0-10 μM for 24 h
Description: (§3) Mouse peritoneal cells were treated with monensin and stained with labeled antibodies against CD117 (2B8), FcεRI (MAR-1), Siglec-F (E50-2440), CD11b (M1/70), F4/80 (BM8), CD3 (17A2), CD4 (GK1.5), CD8b (eBioH35-17.2) and CD19 (ebuo1D3).
as §1
(§4) To this end, monensin was added to cells recovered by peritoneal lavage of mice, followed by flow cytometry analysis to assess the effects of monensin on the various cell populations of the peritoneum.
(§5) Peritoneal cell populations were recovered by peritoneal lavage of mice. The gating strategy to identify viable cells and to identify macrophages, lymphocytes, MCs and eosinophils within the peritoneal cell population is shown in (A). […] The panels show quantification of viable (Annexin V^−/Via-Probe^−) cells; in the MC (B), lymphocyte (C), macrophage (D) and eosinophil (E) populations (n=3).

peritoneal macrophages = test: Mouse peritoneal lavage cells, viability by flow cytometry: macrophages; format: cell-based; conditions: 0-10 μM for 24 h
Description: as §3, §1, §4, §5

[7] = system: human skin mast cells (hskinMC); test: Cell death assessment in human skin mast cells; format: cell-based
Description: as §1
(§6) Next, the inventors assessed if monensin is cytotoxic for human mast cells by assessing its effect on immature human mast cell lines (LUVA, HMC-1) and on fully mature skin mast cells (hskinMC).

BMMCs [8] = test: Cytosolic pH in BMMCs (BCFL-AM); format: cell-based, mouse; conditions: 4 and 24 h
Description: as §1, §2

peritoneal eosinophils = test: Mouse peritoneal lavage cells, viability by flow cytometry: eosinophils; format: cell-based; conditions: 0-10 μM for 24 h
Description: as §3, §1, §4, §5

[9] = system: human fibroblast cells (HFL-1)
[10] = system: immature human mast cell line HMC-1; test: Cell death assessment in HMC-1 cells; format: cell-based; conditions: lower potency than for BMMCs and PCMCs
Description: as §1, §6

MCs [11] = test: Cell death in absence or presence of caspase inhibitor Z-DEVD; format: cell-based; conditions: 1 or 10 μM monensin, with or without Z-DEVD
Description: MCs were treated with 1 or 10 μM monensin, either in the absence or presence of a caspase inhibitor: Z-DEVD. Flow cytometry was used to distinguish between viable (Annexin V^−/DRAQ7^−), apoptotic (Annexin V^+/DRAQ7^−) and necrotic (Annexin V^+/DRAQ7^+) cells. […] In line with the latter, the extent of cell death in response to monensin was not affected by the caspase inhibitor, Z-DEVD (FIG. 3).

HEK293 cells = test: Cytotoxicity against HEK293 cells (PrestoBlue); format: cell-based, human; conditions: 0.01-10 μM for 48 h; much less than on mast cells
[12] = system: human primary airway epithelial cells (HSAEC); test: Cytotoxicity against human primary airway epithelial cells (PrestoBlue); format: cell-based; conditions: 0.01-10 μM for 48 h; much less than on mast cells
human blood monocytes = test: Human peripheral blood-derived cells, viability: monocytes; format: cell-based
Description: (§7) Mononuclear cells and granulocytes were purified from heparinized human peripheral blood. Cells were stained with antibodies against CD4 (RPA-T4), CD8 (RPA-T8), CD19 (HIB19) and CD14 (M5E2) or CCR3 (5E8) and CD15 (W6D3) for analysis of mononuclear cells and granulocytes, respectively.
as §1
(§8) To extend these findings into the corresponding human leukocyte populations, the inventors assessed the effects of monensin on eosinophils (B), human blood monocytes (C), lymphocytes (D), and neutrophils (E).

peritoneal MCs = test: Mouse peritoneal lavage cells, viability by flow cytometry: MCs; format: cell-based; conditions: 0-10 μM for 24 h
Description: as §3, §1, §4, §5

human eosinophils = test: Human peripheral blood-derived cells, viability: eosinophils; format: cell-based
Description: as §7, §1, §8

[13] = system: immature human mast cell line LUVA; test: Cell death assessment in LUVA cells; format: cell-based; conditions: lower potency than for BMMCs and PCMCs
Description: as §1, §6

human skin MCs = test: Granule acidity, LysoSensor Blue DND-167 staining of human skin MCs; format: cell-based; conditions: 0-10 μM for 30 min
Description: as §1, §2

MCs [14] = test: Intracellular calcium in MCs (Fluo-4/AM); format: cell-based
Description: as §1

[15] = system: mast cells populating the tracheal tissue; test: Histological analysis of tracheal segments (astra blue); parameters: species or system guinea pig; conditions: monensin-treated tracheal tissue
Description: Double staining of control (D) and monensin-treated tracheal tissue (E, F) was performed with astra blue.

[16] = system: mouse peritoneal cell-derived mast cells (PCMCs); test: Annexin V/DRAQ7 cell death assessment in PCMCs; format: cell-based; conditions: 24 h incubation
Description: as §1
To assess whether monensin also induces cell death of fully mature mast cells, mouse peritoneal cell-derived mast cells (PCMCs) were developed and their sensitivity to monensin was assessed. […] In fact, these mature mast cells were even more sensitive to monensin than were the BMMCs, with significant cell death seen at concentrations down to 10 nM (24 h incubation).

MCs [17] = test: Hexosaminidase release from MCs; format: cell-based
human neutrophils = test: Human peripheral blood-derived cells, viability: neutrophils; format: cell-based
Description: as §7, §1, §8

human lymphocytes = test: Human peripheral blood-derived cells, viability: lymphocytes; format: cell-based
Description: as §7, §1, §8

SMILES: CC(=O)OC[C@H]1O[C@@H]([S-])[C@H](OC(C)=O)[C@@H](OC(C)=O)[C@@H]1OC(C)=O.CCP(CC)CC.[Au+] [Auranofin]
- Viability % (TB) (10 μM) [1]: 100%
- Caspase 3 & 7 activation (Caspase 3 & 7): +
- Caspase-3 & 7 activation (Caspase 3 & 7): caspase-3 & 7 positivity
- Cytotoxicity at 10 μM on HSFib (HFL-1) cells ([2]; 10 μM, 48 h): exhibited cytotoxicity
- Viability % (1 μM) ([3]; 1 μM, BMMCs, Presto Blue): 83%
- Viability % (10 μM) ([3]; 10 μM, BMMCs, 24 hours, Presto Blue): 1%

SMILES: CO/C1=C\C(C)=C\[C@@H](C)[C@@H](O)[C@@H](C)C/C(C)=C/C=C/[C@H](OC)[C@@H]([C@@H](C)[C@@H](O)[C@H](C)[C@@]2(O)C[C@@H](O)[C@H](C)[C@@H](C(C)C)O2)OC1=O [Bafilomycin A]
- LysoSensor Blue DND-167 staining / granule acidity, BMMCs (BMMCs [4]): profound reduction
- Extent of cell death induced by monensin when combined with bafilomycin A ([5]; bafilomycin A 20 nM in combination with monensin, BMMCs): significant reduction
- Monensin-induced translocation of mMCP-6 to the cytosol in cells treated with bafilomycin A (mMCP-6): abrogated

SMILES: CC[C@]1([C@H]2O[C@H]([C@@H]3O[C@](O)(CO)[C@@H](C)C[C@H]3C)C[C@H]2C)CC[C@@H]([C@@]2(C)CC[C@@]3(C[C@@H](O)[C@H](C)[C@H]([C@H](C)[C@H](OC)[C@H](C)C(=O)O)O3)O2)O1 [Monensin, 4-[2-[5-ethyl-5-[5-[6-hydroxy-6-(hydroxymethyl)-3,5-dimethyl-oxan-2-yl]-3-methyl-oxolan-2-yl]oxolan-2-yl]-9-hydroxy-2,8-dimethyl-1,6-dioxaspiro[4.5]dec7-yl]-3-methoxy-2-methyl-pentanoic acid]
- Viability % (1 μM) [6]: 72%
- Viability % (10 μM) [6]: 66%
- Viability % (TB) (10 μM) [1]: 12%
- Histamine release on longer incubation (mast cells; 5 hr incubation with mast cells): potent secretagogue
- Concentrations able to prevent histamine release from mast cells stimulated by secretagogues (mast cells; secretagogues such as calcium ionophore A23187): 0.6 to 150 µg/mL
- Caspase 3 & 7 activation (Caspase 3 & 7): −
- Caspase-3 & 7 activation (Caspase 3 & 7): absence of a positive signal; also recorded: does not cause caspase-3 & 7 activations
- Response of peritoneal lymphocytes (peritoneal lymphocytes): resistant
- LysoSensor Blue DND-167 staining / granule acidity, BMMCs (BMMCs [4]): marked reduction
- Response of peritoneal macrophages (peritoneal macrophages): resistant
- Sensitivity of human skin mast cells ([7]; especially after longer incubation time): considerable sensitivity
- Type of cell death in human skin mast cells ([7]; sign of necrosis almost negligible): mainly apoptosis
- Cytosolic pH (BMMCs [8]): significant drop
- Concentrations with substantial cell death of peritoneal eosinophils (down to) (peritoneal eosinophils): ≥ 10 nM
- Cytotoxicity at 10 μM on HSFib (HFL-1) cells [9]: exhibited cytotoxicity
- Cytotoxicity to HMC-1 cells [10]: cytotoxic
- Extent of cell death in presence of caspase inhibitor Z-DEVD (MCs [11]): not affected
- Concentration from which a cytotoxic effect was exhibited, HFL-1 ([2]; 0.01-10 μM for 48 h, much less than on mast cells): ≥ 1000 nM
- Concentration from which a cytotoxic effect was exhibited, HEK293 (HEK293 cells): ≥ 1000 nM
- Selectivity of cytotoxic effect, mast cells versus HFL-1, HSAEC, HEK-293 [3]: high and selective cytotoxic effect on mast cells
- Potency against BMMCs compared with the other drugs ([3]; 0.01-10 μM for 24, 48 or 72 h): markedly more potent than any of the other three drugs
- Concentrations showing considerable toxicity to BMMCs (down to) ([3]; 0.01-10 μM for 24, 48 or 72 h, especially after prolonged (72 h) incubation): ≥ 10 nM
- Concentration from which a cytotoxic effect was exhibited, HSAEC [12]: ≥ 1000 nM
- Viability of human monocytes (human blood monocytes): no reduction
- Concentrations at which peritoneal MCs were extensively depleted (down to) (peritoneal MCs): ≥ 10 nM
- Response of human eosinophils (human eosinophils): sensitive
- Cytotoxicity to LUVA cells [13]: cytotoxic
- LysoSensor Blue DND-167 staining, human skin MCs (human skin MCs): marked reduction
- Cytosolic calcium (MCs [14]): did not cause an increase
- Proportion of mast cells having a defined nucleus [15]: profound reduction
- Type of cell death in serglycin−/− BMMCs ([5]; 0-10 μM for 24 h, serglycin−/− BMMCs): predominantly Annexin V/DRAQ7 double-positive
- Sensitivity of mast cells with high granularity versus low granularity ([5]; 1 μM, 12 and 24 h, SSC gating): markedly more sensitive
- Type of cell death in WT BMMCs (Annexin V/DRAQ7) ([5]; WT BMMCs): predominantly Annexin V single positivity; also recorded: predominantly apoptotic cell death
- Translocation of mMCP-6 into the cytosolic fraction (mMCP-6): profound translocation
- Concentrations with significant cell death in PCMCs (down to) [16]: ≥ 10 nM
- Release of hexosaminidase (MCs [17]): did not cause
- Response of human neutrophils (human neutrophils): only marginally affected
- Viability of human lymphocytes (human lymphocytes): no reduction

SMILES: CCN(CC)CCOc1ccc(C(=C(Cl)c2ccccc2)c2ccccc2)cc1 [Clomiphene]
- Viability % (1 μM) [6]: 99%
- Viability % (10 μM) [6]: 76%
- Viability % (TB) (10 μM) [1]: 22%
- Caspase 3 & 7 activation (Caspase 3 & 7): −
- Caspase-3 & 7 activation (Caspase 3 & 7): absence of a positive signal
